± gives the standard deviation of the averaged measurements.
Columns and labels:
Test in all cases: relative viability vs DMSO control (72 h) (fraction); higher = more viable cells
SW872 = system: SW872
Summary of the method: (§1)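 Serially diluted compound, 2.5 µl from source plates spanning 10 mM to 0.0002 mM, was added 24 h after sarcoma cell lines were seeded in 384-well plates at densities targeting 80–90% confluence. Plates then sat 72 h at 37 °C, 5% CO2, with 0.1% DMSO vehicle and a 5 µM positive control. Relative viability came from ATPLite as percent growth, averaged over up to triplicate wells, and was rescaled with 1 as full and 0 as none.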

A204 = system: A204
Summary of the method: as §1

SYO-1 = system: SYO-1
Summary of the method: as §1

SK-ES-1 = system: SK-ES-1
Summary of the method: as §1

SW982 = system: SW982
Summary of the method: as §1

HS729 = system: HS729
Summary of the method: as §1

KHOS-240S = system: KHOS-240S
Summary of the method: as §1

SW1353 = system: SW1353
Summary of the method: as §1

G401 = system: G401
Summary of the method: as §1

SW684 = system: SW684
Summary of the method: as §1

MES-SA = system: MES-SA
Summary of the method: as §1

SK-LMS-1 = system: SK-LMS-1
Summary of the method: as §1

`Cc1cn(-c2cc(NC(=O)c3ccc(C)c(Nc4nccc(-c5cnccn5)n4)c3)cc(C(F)(F)F)c2)cn1` [Radotinib] showed a relative viability (SW872; 0.00017 µM) of 1.06 ± 0.032, a relative viability (SW872; 0.00051 µM) of 1.07 ± 0.028 and a relative viability (SW872; 0.00152 µM) of 1.07 ± 0.059. It also gave a relative viability (SW872; 0.00457 µM) of 1.07 ± 0.03, a relative viability (SW872; 0.01372 µM) of 1.07 ± 0.051 and a relative viability (SW872; 0.04115 µM) of 1.07 ± 0.028. For the same compound, the relative viability (SW872; 0.1235 µM) was 1.08 ± 0.054, the relative viability (SW872; 0.3704 µM) was 1.06 ± 0.063 and the relative viability (SW872; 1.111 µM) was 0.98 ± 0.019. The relative viability (SW872; 3.333 µM) was 0.915 ± 0.043, the relative viability (SW872; 10 µM) was 0.889 ± 0.045 and the relative viability (A204; 0.00017 µM) was 1.09 ± 0.019. For the same compound, the relative viability (A204; 0.00051 µM) was 1.11 ± 0.03, the relative viability (A204; 0.00152 µM) was 1.09 ± 0.026 and the relative viability (A204; 0.00457 µM) was 1.13 ± 0.047. For the same compound, the relative viability (A204; 0.01372 µM) was 1.14 ± 0.035, the relative viability (A204; 0.04115 µM) was 1.13 ± 0.018 and the relative viability (A204; 0.1235 µM) was 1.11 ± 0.045. For the same compound, the relative viability (A204; 0.3704 µM) was 1.07 ± 0.065, the relative viability (A204; 1.111 µM) was 0.836 ± 0.047 and the relative viability (A204; 3.333 µM) was 0.629 ± 0.072. The relative viability (A204; 10 µM) was 0.451 ± 0.019, the relative viability (SYO-1; 0.00017 µM) was 0.976 ± 0.062 and the relative viability (SYO-1; 0.00051 µM) was 0.978 ± 0.034. For the same compound, the relative viability (SYO-1; 0.00152 µM) was 0.987 ± 0.021, the relative viability (SYO-1; 0.00457 µM) was 0.967 ± 0.025 and the relative viability (SYO-1; 0.01372 µM) was 0.989 ± 0.037. It also gave a relative viability (SYO-1; 0.04115 µM) of 0.988 ± 0.029, a relative viability (SYO-1; 0.1235 µM) of 0.993 ± 0.012 and a relative viability (SYO-1; 0.3704 µM) of 0.945 ± 0.03. The relative viability (SYO-1; 1.111 µM) was 0.802 ± 0.04, the relative viability (SYO-1; 3.333 µM) was 0.688 ± 0.023 and the relative viability (SYO-1; 10 µM) was 0.644 ± 0.037. The relative viability (SK-ES-1; 0.00017 µM) was 1.02 ± 0.042, the relative viability (SK-ES-1; 0.00051 µM) was 1.01 ± 0.075 and the relative viability (SK-ES-1; 0.00152 µM) was 1.047 ± 0.0098. The relative viability (SK-ES-1; 0.00457 µM) was 1.04 ± 0.066, the relative viability (SK-ES-1; 0.01372 µM) was 1.07 ± 0.024 and the relative viability (SK-ES-1; 0.04115 µM) was 1.07 ± 0.062. For the same compound, the relative viability (SK-ES-1; 0.1235 µM) was 1.05 ± 0.043, the relative viability (SK-ES-1; 0.3704 µM) was 1.03 ± 0.065 and the relative viability (SK-ES-1; 1.111 µM) was 1.02 ± 0.026. The relative viability (SK-ES-1; 3.333 µM) was 1.01 ± 0.063, the relative viability (SK-ES-1; 10 µM) was 1.074 ± 0.0093 and the relative viability (SW982; 0.00017 µM) was 1.066 ± 0.0051. It also gave a relative viability (SW982; 0.00051 µM) of 1.07 ± 0.035, a relative viability (SW982; 0.00152 µM) of 1.08 ± 0.014 and a relative viability (SW982; 0.00457 µM) of 1.07 ± 0.034. The relative viability (SW982; 0.01372 µM) was 1.069 ± 0.01, the relative viability (SW982; 0.04115 µM) was 1.08 ± 0.046 and the relative viability (SW982; 0.1235 µM) was 1.1 ± 0.043. It also gave a relative viability (SW982; 0.3704 µM) of 1.11 ± 0.042, a relative viability (SW982; 1.111 µM) of 1.11 ± 0.057 and a relative viability (SW982; 3.333 µM) of 1.13 ± 0.062. The relative viability (SW982; 10 µM) was 1.12 ± 0.063, the relative viability (HS729; 0.00017 µM) was 0.995 ± 0.088 and the relative viability (HS729; 0.00051 µM) was 1.01 ± 0.1. The relative viability (HS729; 0.00152 µM) was 1.02 ± 0.069, the relative viability (HS729; 0.00457 µM) was 1.03 ± 0.097 and the relative viability (HS729; 0.01372 µM) was 0.995 ± 0.069. For the same compound, the relative viability (HS729; 0.04115 µM) was 0.99 ± 0.032, the relative viability (HS729; 0.1235 µM) was 1.02 ± 0.068 and the relative viability (HS729; 0.3704 µM) was 1.03 ± 0.059. It also gave a relative viability (HS729; 1.111 µM) of 0.995 ± 0.077, a relative viability (HS729; 3.333 µM) of 0.8744 ± 0.0076 and a relative viability (HS729; 10 µM) of 0.875 ± 0.051. It also gave a relative viability (KHOS-240S; 0.00017 µM) of 1.07 ± 0.014, a relative viability (KHOS-240S; 0.00051 µM) of 1.07 ± 0.015 and a relative viability (KHOS-240S; 0.00152 µM) of 1.07 ± 0.028. It also gave a relative viability (KHOS-240S; 0.00457 µM) of 1.07 ± 0.025, a relative viability (KHOS-240S; 0.01372 µM) of 1.05 ± 0.036 and a relative viability (KHOS-240S; 0.04115 µM) of 1.06 ± 0.017. The relative viability (KHOS-240S; 0.1235 µM) was 1.07 ± 0.031, the relative viability (KHOS-240S; 0.3704 µM) was 1.05 ± 0.035 and the relative viability (KHOS-240S; 1.111 µM) was 1.04 ± 0.016. The relative viability (KHOS-240S; 3.333 µM) was 1.05 ± 0.046, the relative viability (KHOS-240S; 10 µM) was 1.02 ± 0.019 and the relative viability (SW1353; 0.00017 µM) was 1.02 ± 0.011. For the same compound, the relative viability (SW1353; 0.00051 µM) was 1.023 ± 0.0072, the relative viability (SW1353; 0.00152 µM) was 1.06 ± 0.044 and the relative viability (SW1353; 0.00457 µM) was 1.06 ± 0.018. The relative viability (SW1353; 0.01372 µM) was 1.06 ± 0.016, the relative viability (SW1353; 0.04115 µM) was 1.1 ± 0.015 and the relative viability (SW1353; 0.1235 µM) was 1.19 ± 0.028. The relative viability (SW1353; 0.3704 µM) was 1.21 ± 0.023, the relative viability (SW1353; 1.111 µM) was 1.25 ± 0.027 and the relative viability (SW1353; 3.333 µM) was 1.22 ± 0.081. For the same compound, the relative viability (SW1353; 10 µM) was 1.17 ± 0.068, the relative viability (G401; 0.00017 µM) was 1.02 ± 0.032 and the relative viability (G401; 0.00051 µM) was 1.06 ± 0.031. For the same compound, the relative viability (G401; 0.00152 µM) was 1.07 ± 0.045, the relative viability (G401; 0.00457 µM) was 1.1 ± 0.017 and the relative viability (G401; 0.01372 µM) was 1.12 ± 0.02. It also gave a relative viability (G401; 0.04115 µM) of 1.11 ± 0.028, a relative viability (G401; 0.1235 µM) of 1.1 ± 0.062 and a relative viability (G401; 0.3704 µM) of 1.08 ± 0.059. The relative viability (G401; 1.111 µM) was 1.04 ± 0.061, the relative viability (G401; 3.333 µM) was 0.984 ± 0.032 and the relative viability (G401; 10 µM) was 0.931 ± 0.018. The relative viability (SW684; 0.00017 µM) was 1.13 ± 0.021, the relative viability (SW684; 0.00051 µM) was 1.17 ± 0.059 and the relative viability (SW684; 0.00152 µM) was 1.2 ± 0.032. For the same compound, the relative viability (SW684; 0.00457 µM) was 1.21 ± 0.048, the relative viability (SW684; 0.01372 µM) was 1.17 ± 0.066 and the relative viability (SW684; 0.04115 µM) was 1.19 ± 0.031. It also gave a relative viability (SW684; 0.1235 µM) of 1.26 ± 0.074, a relative viability (SW684; 0.3704 µM) of 1.33 ± 0.033 and a relative viability (SW684; 1.111 µM) of 1.38 ± 0.085. For the same compound, the relative viability (SW684; 3.333 µM) was 1.24 ± 0.093, the relative viability (SW684; 10 µM) was 1.22 ± 0.11 and the relative viability (MES-SA; 0.00017 µM) was 0.935 ± 0.032. The relative viability (MES-SA; 0.00051 µM) was 0.938 ± 0.016, the relative viability (MES-SA; 0.00152 µM) was 0.935 ± 0.022 and the relative viability (MES-SA; 0.00457 µM) was 0.941 ± 0.046. For the same compound, the relative viability (MES-SA; 0.01372 µM) was 0.958 ± 0.042, the relative viability (MES-SA; 0.04115 µM) was 0.954 ± 0.021 and the relative viability (MES-SA; 0.1235 µM) was 0.981 ± 0.044. The relative viability (MES-SA; 0.3704 µM) was 0.99 ± 0.031, the relative viability (MES-SA; 1.111 µM) was 1.01 ± 0.011 and the relative viability (MES-SA; 3.333 µM) was 1.01 ± 0.031. It also gave a relative viability (MES-SA; 10 µM) of 1.03 ± 0.026, a relative viability (SK-LMS-1; 0.00017 µM) of 1.05 ± 0.02 and a relative viability (SK-LMS-1; 0.00051 µM) of 1.07 ± 0.031. It also gave a relative viability (SK-LMS-1; 0.00152 µM) of 1.08 ± 0.015, a relative viability (SK-LMS-1; 0.00457 µM) of 1.05 ± 0.025 and a relative viability (SK-LMS-1; 0.01372 µM) of 1.08 ± 0.049. For the same compound, the relative viability (SK-LMS-1; 0.04115 µM) was 1.14 ± 0.044, the relative viability (SK-LMS-1; 0.1235 µM) was 1.14 ± 0.036 and the relative viability (SK-LMS-1; 0.3704 µM) was 1.19 ± 0.045. The relative viability (SK-LMS-1; 1.111 µM) was 1.11 ± 0.061, the relative viability (SK-LMS-1; 3.333 µM) was 1.18 ± 0.034 and the relative viability (SK-LMS-1; 10 µM) was 1.12 ± 0.028.

Reference: the supplement of paper PMC10883282
